Where a SMILES comes first, the peptide text is derived from it. Bridges are numbered along the chain shown (N, C = ends). [ ]: non-standard residue; d: D form. The star is where a group is joined. hPhe(3,5-F2-4-CF3) = N[C@@H](CCc1cc(F)c(C(F)(F)F)c(F)c1)C(=O)O; hPhe(3-Cl-4-CF3) = N[C@@H](CCc1ccc(C(F)(F)F)c(Cl)c1)C(=O)O; NPrPhe(4-CF3) = CCCN[C@@H](Cc1ccc(C(F)(F)F)cc1)C(=O)O; NMeGly(cPent) = CN[C@H](C(=O)O)C1CCCC1; Pro(4,4-F2) = O=C(O)[C@@H]1CC(F)(F)CN1; NMeD = CN[C@@H](CC(=O)O)C(=O)O; NMeL = CN[C@@H](CC(C)C)C(=O)O; αMeL = CC(C)C[C@](C)(N)C(=O)O; Morpholide = C1CN(*)CCO1; Ac5c = NC1(C(=O)O)CCCC1; Aze = O=C(O)[C@@H]1CCN1; Sar = CNCC(=O)O
Columns and labels:
HRAS wild-type protein = HRAS wild-type protein (Homo sapiens, UniProt P01112); assay: Binding to HRAS by surface plasmon resonance (SPR), KD and KD ratio to KRAS
Summary of the method: (§1)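 Running buffer contained 10 µM GDP and 10 mM MgCl2 to keep RAS in the GDP state, with 4% DMSO at pH 7.4. Compounds were flowed at 100 µL/min in 75 s steps of rising concentration over captured biotin-Avi RAS at 30°C. Sensorgrams were fitted 1:1 for KD.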

[1] = tested on: human lung cancer strain NCI-H441; type: cell-based
Summary of the method: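 Step one: dispense the test compound in serial DMSO dilutions. Step three: add the reagent and measure […].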

[2] = target: GDP-bound KRAS wild-type protein (Homo sapiens, UniProt P01116); assay: Binding to KRAS by surface plasmon resonance (SPR), dissociation constant KD
Summary of the method: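 Measured at 30°C: SPR with GDP-loaded, E. coli-expressed biotin-Avi RAS captured (~100–300 RU), ascending 75 s compound injections, HBS pH 7.4 with GDP, MgCl2, 4% DMSO. KD from 1:1 fit.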

[3] = target: GDP-bound NRAS wild-type protein (Homo sapiens, UniProt P01111); assay: Binding to NRAS by surface plasmon resonance (SPR), KD and KD ratio to KRAS
Summary of the method: as §1

[4] = ratio of KD for HRAS wild-type protein to KD for KRAS
[5] = ratio of KD for GDP-bound NRAS wild-type protein to KD for KRAS
[6] = ratio of the KD value with respect to HRAS wild-type protein to the KD value with respect to KRAS
[7] = Single Cycle Kinetics, 1:1 binding model
[8] = ratio of the KD value with respect to GDP-bound NRAS wild-type protein to the KD value with respect to KRAS

GDP-bound KRAS wild-type protein, sequence (P01116 1-188 isoform P01116-2): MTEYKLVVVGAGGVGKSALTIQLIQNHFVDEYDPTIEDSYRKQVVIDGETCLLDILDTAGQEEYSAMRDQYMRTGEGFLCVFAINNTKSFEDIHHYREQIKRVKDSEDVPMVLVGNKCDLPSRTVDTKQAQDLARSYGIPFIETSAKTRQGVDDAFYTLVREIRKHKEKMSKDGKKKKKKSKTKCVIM
HRAS wild-type protein, sequence (P01112 whole entry): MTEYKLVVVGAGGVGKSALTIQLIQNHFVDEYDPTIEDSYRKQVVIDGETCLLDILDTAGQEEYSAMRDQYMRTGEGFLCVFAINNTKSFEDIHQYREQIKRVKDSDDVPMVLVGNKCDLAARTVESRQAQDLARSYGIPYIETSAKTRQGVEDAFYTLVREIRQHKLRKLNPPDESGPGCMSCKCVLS
GDP-bound NRAS wild-type protein, sequence (P01111 whole entry): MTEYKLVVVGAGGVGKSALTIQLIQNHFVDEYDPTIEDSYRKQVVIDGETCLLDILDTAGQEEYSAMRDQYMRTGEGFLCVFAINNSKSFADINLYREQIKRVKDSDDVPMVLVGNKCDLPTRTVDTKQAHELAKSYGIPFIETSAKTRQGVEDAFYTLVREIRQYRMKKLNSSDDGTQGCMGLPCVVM

Row | Structure (SMILES) | IC50 [1] | Kd ([2]; 1:1 binding model) | Kd [2, 7] | Kd ([2]; Single Cycle Kinetics) | HRAS /KRAS (HRAS wild-type protein; [4]) | NRAS /KRAS [3, 5] | HRAS /KRAS (HRAS wild-type protein; [6]) | NRAS /KRAS [3, 8] | HRAS /KRAS (HRAS wild-type protein; ratio of KD value for HRAS wild-type protein to KD value for KRAS (SPR)) | NRAS /KRAS ([3]; ratio of KD value for GDP-bound NRAS wild-type protein to KD value for KRAS (SPR))
1 | CCO[C@@H]1C[C@H]2C(=O)NC3(CC(C)(C)C3)C(=O)N(C)[C@@H](C3CCCC3)C(=O)N(C)[C@H](C(=O)N(C)CC)CC(=O)N(C)[C@@H]([C@H](C)OC)C(=O)N[C@@H]([C@@H](C)CC)C(=O)N3CCC[C@H]3C(=O)N(C)[C@H]3C/C=C\CCN(C3=O)[C@@H](Cc3ccc(C)cc3)C(=O)N(C)CC(=O)N[C@@H](CCc3cc(F)c(C(F)(F)F)c(F)c3)C(=O)N2C1 [PP3163] | 296 nM | 1.8 nM |  |  | A (a compound having 10 or more and less than 20 is denoted as A) | A (a compound having 10 or more and less than 20 is denoted as A) |  |  |  | 
2 | CC[C@H](C)[C@@H]1NC(=O)[C@@H](CC(C)C)N(C)C(=O)C[C@@H](C(=O)N2CCOCC2)N(C)C(=O)[C@H](C2CCCC2)N(C)C(=O)C2(CCCC2)NC(=O)[C@@H]2CCCN2C(=O)[C@H](CCc2cc(F)c(C(F)(F)F)c(F)c2)NC(=O)CN(C)C(=O)[C@H](Cc2ccc(C(F)(F)F)cc2)N2CCCC[C@@H](C2=O)N(C)C(=O)CN(C)C1=O [PP0591] | 3890 nM |  | 87 nM |  |  |  | B (a compound having 3 or more and less than 10 is denoted as B) | B (a compound having 3 or more and less than 10 is denoted as B) |  | 
3 | CC[C@H](C)[C@@H]1NC(=O)[C@H](CC(C)C)N(C)C(=O)C[C@@H](C(=O)N2CCOCC2)N(C)C(=O)[C@H](C2CCCC2)N(C)C(=O)[C@](C)(CC)NC(=O)[C@@H]2CCCN2C(=O)[C@H](CCc2cc(F)c(C(F)(F)F)c(F)c2)NC(=O)CN(C)C(=O)[C@H](Cc2ccc(C(F)(F)F)cc2)N2CCCCC[C@@H](C2=O)N(C)C(=O)CN(C)C1=O [PP0500] | 963 nM |  | 18 nM |  |  |  | B (a compound having 3 or more and less than 10 is denoted as B) | B (a compound having 3 or more and less than 10 is denoted as B) |  | 
4 | CCC[C@H]1C(=O)N[C@@H](C2CCCC2)C(=O)N(C)CC(=O)N(C)[C@H]2C/C=C\CCN(C2=O)[C@@H](Cc2ccc(C)cc2)C(=O)N(C)CC(=O)N[C@@H](CCc2ccc(C(F)(F)F)c(Cl)c2)C(=O)N2C[C@H](OCC)C[C@H]2C(=O)NC2(CC(C)(C)C2)C(=O)N(C)[C@@H](CC(C)C)C(=O)N(C)[C@H](C(=O)N(C)C)CC(=O)N1C [PP2190] | 84.5 nM |  | 0.91 nM |  |  |  | A (a compound having 10 or more and less than 20 is denoted as A) | A (a compound having 10 or more and less than 20 is denoted as A) |  | 
5 | CCCN1C(=O)CN(C)C(=O)[C@@H]2CCN2C(=O)[C@H]([C@@H](C)CC)NC(=O)[C@H](CC(C)C)N(C)C(=O)C[C@@H](C(=O)N2CCOCC2)N(C)C(=O)[C@H](C2CCCC2)N(C)C(=O)[C@](C)(CC(C)C)NC(=O)[C@@H]2CCCN2C(=O)[C@H](CCc2cc(F)c(C(F)(F)F)c(F)c2)NC(=O)CN(C)C(=O)[C@@H]1Cc1ccc(C(F)(F)F)cc1 [PP0776] ([NMeL]I[Aze][Sar][NPrPhe(4-CF3)][Sar][hPhe(3,5-F2-4-CF3)]P[αMeL][NMeGly(cPent)][NMeD]-Morpholide; lactam N-11) | 591 nM |  |  | 15 nM | B (a compound having 3 or more and less than 10 is denoted as B) | B (a compound having 3 or more and less than 10 is denoted as B) |  |  |  | 
6 | CCC[C@H]1C(=O)N[C@@H](C2CCCCC2)C(=O)N(C)CC(=O)N(C)[C@H]2C/C=C\CCN(C2=O)[C@@H](Cc2ccc(C)cc2)C(=O)N(C)CC(=O)N[C@@H](CCc2ccc(C(F)(F)F)c(Cl)c2)C(=O)N2C[C@H](OCC)C[C@H]2C(=O)NC2(CC(C)(C)C2)C(=O)N(C)[C@@H](CC(C)C)C(=O)N(C)[C@H](C(=O)N(C)C)CC(=O)N1C [PP3021] | 76.7 nM | 1.1 nM |  |  | A (a compound having 10 or more and less than 20 is denoted as A) | AA (a compound having 20 or more is denoted as AA) |  |  |  | 

Stronger by IC50 [1], values ahead:

Row | IC50 [1] | Kd ([2]; 1:1 binding model) | Kd [2, 7] | Kd ([2]; Single Cycle Kinetics) | Structure (SMILES) | HRAS /KRAS (HRAS wild-type protein; [4]) | NRAS /KRAS [3, 5] | HRAS /KRAS (HRAS wild-type protein; [6]) | NRAS /KRAS [3, 8] | HRAS /KRAS (HRAS wild-type protein; ratio of KD value for HRAS wild-type protein to KD value for KRAS (SPR)) | NRAS /KRAS ([3]; ratio of KD value for GDP-bound NRAS wild-type protein to KD value for KRAS (SPR))
7 | 46.3 nM |  | 2.4 nM |  | CC[C@H](C)[C@@H]1NC(=O)[C@H](CC(C)C)N(C)C(=O)C[C@@H](C(=O)N(C)C)N(C)C(=O)[C@H](C2CCCC2)N(C)C(=O)C2(CCCC2)NC(=O)[C@@H]2CCCN2C(=O)[C@H](CCc2ccc(C(F)(F)F)c(Cl)c2)NC(=O)CN(C)C(=O)[C@H](Cc2ccc(C(F)(F)F)cc2)N2CC=CCOC[C@H](C2=O)N(C)C(=O)CN(C)C1=O [PP0628] |  |  | C (A compound having a KD ratio of 0.1 or more and less than 3 is denoted as C) | C (A compound having a KD ratio of 0.1 or more and less than 3 is denoted as C) |  | 
8 | 10.3 nM |  | 0.3 nM |  | CCO[C@@H]1C[C@H]2C(=O)NC3(CC(C)(C)C3)C(=O)N(C)[C@@H](C(CC)CC)C(=O)N(C)[C@H](C(=O)N(C)C)CC(=O)N(C)[C@@H](CC3CC3)C(=O)N[C@@H]([C@@H](C)CC)C(=O)N(C)CC(=O)N(C)[C@H]3C/C=C\CCN(C3=O)[C@@H](Cc3ccc(C)cc3)C(=O)N(C)CC(=O)N[C@@H](CCc3ccc(C(F)(F)F)c(Cl)c3)C(=O)N2C1 [PP2142] |  |  | A (a compound having 10 or more and less than 20 is denoted as A) | AA (a compound having 20 or more is denoted as AA) |  | 
9 | 9.9 nM |  | 0.35 nM |  | CCCN1C(=O)CN(C)C(=O)[C@@H]2CCN2C(=O)[C@H]([C@@H](C)CC)NC(=O)[C@H](CC(C)C)N(C)C(=O)C[C@@H](C(=O)N(C)C)N(C)C(=O)[C@H](C2CCCC2)N(C)C(=O)C2(CCCC2)NC(=O)[C@@H]2CC(F)(F)CN2C(=O)[C@H](CCc2ccc(C(F)(F)F)c(Cl)c2)NC(=O)CN(C)C(=O)[C@@H]1Cc1ccc(C(F)(F)F)cc1 [PP0431] ([NMeL]I[Aze][Sar][NPrPhe(4-CF3)][Sar][hPhe(3-Cl-4-CF3)][Pro(4,4-F2)][Ac5c][NMeGly(cPent)][NMeD]-NMe2; lactam N-11) |  |  | C (A compound having a KD ratio of 0.1 or more and less than 3 is denoted as C) | B (a compound having 3 or more and less than 10 is denoted as B) |  | 
10 | 16.6 nM | 0.3 nM |  |  | CCO[C@@H]1C[C@H]2C(=O)NC3(CC(C)(C)C3)C(=O)N(C)[C@@H](C3CCCC3)C(=O)N(C)[C@H](C(=O)N(C)C)CC(=O)N(C)[C@@H]([C@@H](C)OC)C(=O)N[C@@H]([C@@H](C)CC)C(=O)N(C3CC3)CC(=O)N(C)[C@H]3C/C=C\CCN(C3=O)[C@@H](Cc3ccc(C)cc3)C(=O)N(C)CC(=O)N[C@@H](CCc3ccc(C(F)(F)F)c(Cl)c3)C(=O)N2C1 [PP3212] | A (a compound having 10 or more and less than 20 is denoted as A) | A (a compound having 10 or more and less than 20 is denoted as A) |  |  |  | 
11 | 22.2 nM |  | 0.12 nM |  | CCC[C@H]1C(=O)N[C@@H]([C@@H](C)CC)C(=O)N(C)CC(=O)N(C)[C@H]2C/C=C\CCN(C2=O)[C@@H](Cc2ccc(C)cc2)C(=O)N(C)CC(=O)N[C@@H](CCc2cc(F)c(C(F)(F)F)c(F)c2)C(=O)N2C[C@H](C)C[C@H]2C(=O)NC2(CCC2)C(=O)N(C)[C@@H](C2CCCC2)C(=O)N(C)[C@H](C(=O)N(C)CC)CC(=O)N1C [PP1862] |  |  |  |  | A (a compound having 10 or more and less than 20 is denoted as A) | A (a compound having 10 or more and less than 20 is denoted as A)
12 | 9.3 nM |  | 0.79 nM |  | CCCOC[C@H]1C(=O)N[C@@H]([C@@H](C)CC)C(=O)N(C2CC2)CC(=O)N(C)[C@H]2C/C=C\CCN(C2=O)[C@@H](CC2CCC(F)(F)CC2)C(=O)N(C)CC(=O)N[C@@H](CCc2ccc(C(F)(F)F)c(OC)c2)C(=O)N2C[C@H](OCC)C[C@H]2C(=O)N(C)C2(CCC2)C(=O)N(C)[C@@H](C2CCCC2)C(=O)N(C)[C@H](C(=O)N(C)C)CC(=O)N1C [PP2354] |  |  | A (a compound having 10 or more and less than 20 is denoted as A) | A (a compound having 10 or more and less than 20 is denoted as A) |  | 
13 | 29.9 nM | 0.87 nM |  |  | CCO[C@@H]1C[C@H]2C(=O)NC3(CC(C)(C)C3)C(=O)N(C)[C@@H](C3CCCC3)C(=O)N(C)[C@H](C(=O)N(C)CC)CC(=O)N(C)[C@@H]([C@@H](C)OC)C(=O)N[C@@H]([C@@H](C)CC)C(=O)N3CCC[C@H]3C(=O)N(C)[C@H]3C/C=C\CCN(C3=O)[C@@H](Cc3ccc(C)cc3)C(=O)N(C)CC(=O)N[C@@H](CCc3cc(F)c(C(F)(F)F)c(F)c3)C(=O)N2C1 [PP3190] | B (a compound having 3 or more and less than 10 is denoted as B) | A (a compound having 10 or more and less than 20 is denoted as A) |  |  |  | 
14 | 50.3 nM |  | 0.27 nM |  | CCC[C@@H]1C[C@H]2C(=O)NC3(CCCC3)C(=O)N(C)[C@@H](C3CCCC3)C(=O)N(C)[C@H](C(=O)N(C)C)CC(=O)N(C)[C@@H](CC)C(=O)N[C@@H]([C@@H](C)CC)C(=O)N(C)CC(=O)N(C)[C@H]3C/C=C\CCN(C3=O)[C@@H](Cc3ccc(C)cc3)C(=O)N(C)CC(=O)N[C@@H](CCc3cc(F)c(C(F)(F)F)c(F)c3)C(=O)N2C1 [PP2227] |  |  | A (a compound having 10 or more and less than 20 is denoted as A) | A (a compound having 10 or more and less than 20 is denoted as A) |  | 
